{"source": "patent US8901167B2", "about": "“Product and process for inhibition of biofilm development” (National Jewish Health, priority 2004, dated 2014)", "key": {"[1]": {"tested_on": "P. aeruginosa strain PA01 biofilm", "experiment": "Antibiotic susceptibility of biofilm population (MBEC), NCCLS assay", "assay_type": "cell-based", "conditions": "for Susceptibility of biofilms grown in the presence of neutrophils versus absence: biofilms grown 24 hours", "procedure": "(§1) As human neutrophils enhance biofilm development, the inventors questioned if biofilms formed in the presence of neutrophils had altered patterns of antibiotic resistance. Biofilms and planktonic P. aeruginosa grown in the presence or absence of neutrophils for 24 hours were tested for susceptibility to four clinically relevant classes of antibiotics. […] No significant changes in antibiotic susceptibilities was detected in planktonic P. aeruginosa in the presence of neutrophils. This selective modification of antibiotic resistance supports the conclusion that neutrophils mediate phenotypic changes in addition to greater biofilm thickness."}, "[2]": {"tested_on": "P. aeruginosa strain PA01", "experiment": "Antibiotic susceptibility of planktonic population (MIC), NCCLS assay", "assay_type": "cell-based", "conditions": "Pseudomonas aeruginosa", "procedure": "as §1"}, "actin-DNA filaments": {"tested_on": "actin-DNA filaments", "experiment": "Fluorescence microscopy of actin-DNA filaments in neutrophil lysates and CF sputum", "design": "species or system human", "conditions": "data not shown", "procedure": "Samples of sputa from CF patients chronically infected with P. aeruginosa were frozen in liquid nitrogen and stored at −20° C. At the time of analysis, sputa were thawed and resuspended carefully in PBS (1:4 vol/vol ratio) containing 10^7 CFU/ml of P. aeruginosa labeled with the intracellular fluorescent conjugate (CFDA SE) as described in the actin-binding protocol. Samples were incubated for 4 hours at 37° C., then dried on Superfrost/Plus microscope slides (Fisher Scientific) and stained for 15 min with 10 μl of 0.6 μM Alexa Fluor 546 Phalloidin (Molecular Probes), 10 μl of 0.2 μM DAPI, dilactate (Molecular Probes), to visualize F-actin and DNA. Visualization of actin (546/576 nm), DNA (358/461 nm), and P. aeruginosa (492/517 nm) were performed sequentially on the same field, followed by an “overlay” view at all 3 wavelengths. Neutrophil lysates were also combined with P. aeruginosa labeled with CFDA SE for 4 hrs at 37° C., and staining of F-actin and DNA was conducted as described for CF sputa."}, "P. aeruginosa biofilm [3]": {"tested_on": "P. aeruginosa biofilm", "conditions": "literature refs 39, 43; cited from earlier work"}, "[4]": {"tested_on": "P. aeruginosa PA01 biofilm", "assay_type": "cell-based", "conditions": "for Effect on neutrophil-induced enhancement of biofilm formation: CV staining, DNase I 90 Kunitz units/ml, gelsolin 200 nM, FIG. 3C", "procedure": "A static biofilm assay was used with polypropylene tubes (9). PA01 was grown overnight under constant rotation to late stationary phase at 37° C. in LB. All biofilm studies were initiated with neutrophils (1×10^7 cells/ml) and PA01 (1×10^6 CFU/ml) in suspension, and cultures were incubated under stationary conditions at 37° C. P. aeruginosa adherent to the tube was considered to be a biofilm, while bacteria not adherent to the surface of the tube was considered to be “planktonic”. Viable P. aeruginosa biofilm and planktonic cells were quantified by sonicating the adherent bacteria in LB, followed by serial dilution and plating to determine CFUs on Pseudomonas Isolation Agar (Difco, Sparks, Md.). P. aeruginosa biofilm density was quantified by crystal violet (CV) staining (9). The contribution of background staining of neutrophil components, tubes and reagents were subtracted from depicted values. Neutrophils were lysed with 0.1% Tween 20 (BioRad, Hercules, Calif.) for 30 min. Neutrophil lysates relatively depleted of F-actin were prepared by precipitating the F-actin using the F-actin/G-actin In Vivo Biochem Kit (Cytoskeleton, Denver, Colo.). The total protein present in the whole cell lysate and the F-actin depleted lysate was determined by the Bradford Protein Assay (BioRad, Hercules, Calif.). Biofilm exopolysaccharide was determined by total carbohydrate assays as previously described (15).\nGenomic DNA was isolated from neutrophils and P. aeruginosa using the DNeasy Tissue Kit (Qiagen, Valencia, Calif.) according to the manufacturer's protocol. Actin and DNA polymerization was performed as described previously (38). Effects of filament cleavage was tested by initially treating the samples with 90 Kunitz units/ml of DNase I (43) and/or 200 nM gelsolin (Sigma) (42). Granule proteins were isolated from homogenized human neutrophils by differential centrifugation in a discontinuous Percoll/sucrose gradient (34). Heavy and light granules were immediately suspended in RPMI media and added to P. aeruginosa."}, "P. aeruginosa biofilm [5]": {"tested_on": "P. aeruginosa biofilm", "experiment": "NUNC-TSP biofilm growth of P. aeruginosa suspended in mucin", "assay_type": "cell-based", "description": "When P. aeruginosa was suspended in mucin rather then RPMI media, a similar effect was observed on NUNC-TSP biofilm growth. […] These aggregates of P. aeruginosa may represent the predominant structure of biofilms that are present in the CF airway, and the combination of neutrophils with mucin appears to enhance their formation."}, "[6]": {"conditions": "PA01 + PMN, biofilm grown with neutrophils 24 hours"}, "[7]": {"conditions": "PA01 biofilm, without neutrophils"}, "[8]": {"conditions": "PA01 + PMN, planktonic, grown with neutrophils 24 hours"}, "[9]": {"conditions": "PA01 planktonic, without neutrophils"}}}
{"molecule": "CC[C@H]1OC(=O)[C@H](C)[C@@H](O[C@H]2C[C@@](C)(OC)[C@@H](O)[C@H](C)O2)[C@H](C)[C@@H](O[C@@H]2O[C@H](C)C[C@H](N(C)C)[C@H]2O)[C@](C)(O)C[C@@H](C)CN(C)[C@H](C)[C@@H](O)[C@]1(C)O", "note": "[Azithromycin]", "values": [{"measurement": "MBEC", "setting": "[1]; [6]", "result": 1024, "unit": "µg/mL"}, {"measurement": "MBEC", "setting": "[1]; [7]", "result": ">1024", "unit": "µg/mL"}, {"measurement": "Susceptibility of biofilms grown in the presence of neutrophils versus absence", "setting": "[1]", "result": "unchanged"}, {"measurement": "MIC", "setting": "[2]; [8]", "result": 32, "unit": "µg/mL"}, {"measurement": "MIC", "setting": "[2]; [9]", "result": 64, "unit": "µg/mL"}]}
{"molecule": "CC(C)(O/N=C(\\C(=O)N[C@@H]1C(=O)N2C(C(=O)[O-])=C(C[n+]3ccccc3)CS[C@H]12)c1csc(N)n1)C(=O)O", "note": "[Ceftazidime]", "values": [{"measurement": "MBEC", "setting": "[1]; [6]", "result": ">1024", "unit": "µg/mL"}, {"measurement": "MBEC", "setting": "[1]; [7]", "result": ">1024", "unit": "µg/mL"}, {"measurement": "Susceptibility of biofilms grown in the presence of neutrophils versus absence", "setting": "[1]", "result": "unchanged"}, {"measurement": "MIC", "setting": "[2]; [8]", "result": 2, "unit": "µg/mL"}, {"measurement": "MIC", "setting": "[2]; [9]", "result": 2, "unit": "µg/mL"}]}
{"molecule": "O=C(O)c1cn(C2CC2)c2cc(N3CCNCC3)c(F)cc2c1=O", "note": "[Ciprofloxacin]", "values": [{"measurement": "MBEC", "setting": "[1]; [6]", "result": 128, "unit": "µg/mL"}, {"measurement": "MBEC", "setting": "[1]; [7]", "result": 512, "unit": "µg/mL"}, {"measurement": "Susceptibility of biofilms grown in the presence of neutrophils versus absence", "setting": "[1]", "result": "significantly greater susceptibility"}, {"measurement": "MIC", "setting": "[2]; [8]", "result": 2, "unit": "µg/mL"}, {"measurement": "MIC", "setting": "[2]; [9]", "result": 0.5, "unit": "µg/mL"}]}
{"molecule": "NC[C@H]1O[C@H](O[C@H]2[C@H](O)[C@@H](O[C@H]3O[C@H](CO)[C@@H](O)[C@H](N)[C@H]3O)[C@H](N)C[C@@H]2N)[C@H](N)C[C@@H]1O", "note": "[Tobramycin]", "values": [{"measurement": "MBEC", "setting": "[1]; [6]", "result": 256, "unit": "µg/mL"}, {"measurement": "MBEC", "setting": "[1]; [7]", "result": ">1024", "unit": "µg/mL"}, {"measurement": "Susceptibility of biofilms grown in the presence of neutrophils versus absence", "setting": "[1]", "result": "significantly greater susceptibility"}, {"measurement": "MIC", "setting": "[2]; [8]", "result": 0.5, "unit": "µg/mL"}, {"measurement": "MIC", "setting": "[2]; [9]", "result": 1, "unit": "µg/mL"}]}
{"molecule": "DNase", "values": [{"measurement": "Disruption of actin-DNA filaments", "setting": "actin-DNA filaments", "result": "near complete disruption of the actin-DNA filaments"}, {"measurement": "Effect on P. aeruginosa biofilm formation", "setting": "P. aeruginosa biofilm [3]", "result": "strongly inhibited biofilm formation"}, {"measurement": "Effect on bacterial growth or neutrophil survival", "setting": "[4]", "result": "without significantly inhibiting bacterial growth or neutrophil survival"}, {"measurement": "Effect on neutrophil-induced enhancement of biofilm formation", "setting": "[4]", "result": "abolished much of the neutrophil-induced enhancement of biofilm formation"}]}
{"molecule": "gelsolin", "values": [{"measurement": "Effect on neutrophil-induced enhancement of biofilm formation", "setting": "[4]", "result": "significantly reduced the neutrophil-induced enhancement of the biofilm"}]}
{"molecule": "mucin", "values": [{"measurement": "Effect on biofilm growth", "setting": "P. aeruginosa biofilm [5]; absence of neutrophils", "result": "increased biofilm growth"}, {"measurement": "Effect on biofilm growth", "setting": "P. aeruginosa biofilm [5]; presence of neutrophils", "result": "no change"}]}
